Experiment [1] has as its target T1, GR from rat thymus (thymus cytosol) (Rattus norvegicus, UniProt P06536).
T1 construct: Thymuses were used as a source of GR; from tissue; host or cells: thymus cytosol, adrenalectomized male Sprague-Dawley rats
T1 sequence (P06536 1-795): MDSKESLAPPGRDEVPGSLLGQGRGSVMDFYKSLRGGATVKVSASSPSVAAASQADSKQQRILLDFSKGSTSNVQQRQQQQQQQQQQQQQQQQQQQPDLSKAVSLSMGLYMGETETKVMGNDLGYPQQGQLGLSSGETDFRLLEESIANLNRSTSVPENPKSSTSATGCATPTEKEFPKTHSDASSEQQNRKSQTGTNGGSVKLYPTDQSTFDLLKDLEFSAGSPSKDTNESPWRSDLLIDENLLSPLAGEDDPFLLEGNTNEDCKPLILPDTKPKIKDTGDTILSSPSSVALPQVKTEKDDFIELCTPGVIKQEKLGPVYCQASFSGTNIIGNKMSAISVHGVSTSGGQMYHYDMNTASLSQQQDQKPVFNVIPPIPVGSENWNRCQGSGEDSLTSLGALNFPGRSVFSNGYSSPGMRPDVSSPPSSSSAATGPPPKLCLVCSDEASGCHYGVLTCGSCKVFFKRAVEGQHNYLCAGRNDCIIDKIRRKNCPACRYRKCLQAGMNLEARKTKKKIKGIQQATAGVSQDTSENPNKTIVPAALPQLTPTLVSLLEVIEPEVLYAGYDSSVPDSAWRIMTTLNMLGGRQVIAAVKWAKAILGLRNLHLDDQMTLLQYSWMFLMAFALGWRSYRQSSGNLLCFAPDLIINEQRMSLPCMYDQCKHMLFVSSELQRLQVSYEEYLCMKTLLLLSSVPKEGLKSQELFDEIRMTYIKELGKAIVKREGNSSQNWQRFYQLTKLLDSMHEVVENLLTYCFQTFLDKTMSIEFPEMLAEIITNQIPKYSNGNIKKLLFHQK
The experiment is described as follows: displacement of (^3 H)-B binding to GR, rat thymus cytosol. The procedure:
(§1) Binding Assay: Adrenalectomized male Sprague-Dawley rats were bled to death by heart puncture. Cold 0.9% NaCI was injected profusely through the aorta until organs were completely blanched. Thymuses were used as a source of GR and kidneys as a source of MR. Homogenization and incubation conditions were performed as previously described, (14) and (15), respectively. Briefly, homogenates performed in cold TEGM buffer at pH 7.4 (0.1 M Tris-HCl, 10 mM EDTA, 10 mM α-mercaptoethanol, 20 mM Na2 MoO4, 25% glycerol, 0.1 mM PMSF, 2.0 TIU/ml aprotinin and 1 mg% Leupeptin) were centrifuged at 37,000 rev. for 30 min at 0° C. Supernatants from this centrifugation are referred to as "cytosol". […] (^3 H)-P4 binding to uterus PR was assayed on immature female rats according to Jordan et al (16).
The displacement curve of 6,19-oxidoprogesterone is included for comparative purposes.

In experiment [2] the target is T2, uterus PR (progesterone receptor) (Rattus norvegicus, UniProt Q63449).
T2 sequence (Q63449 1-923): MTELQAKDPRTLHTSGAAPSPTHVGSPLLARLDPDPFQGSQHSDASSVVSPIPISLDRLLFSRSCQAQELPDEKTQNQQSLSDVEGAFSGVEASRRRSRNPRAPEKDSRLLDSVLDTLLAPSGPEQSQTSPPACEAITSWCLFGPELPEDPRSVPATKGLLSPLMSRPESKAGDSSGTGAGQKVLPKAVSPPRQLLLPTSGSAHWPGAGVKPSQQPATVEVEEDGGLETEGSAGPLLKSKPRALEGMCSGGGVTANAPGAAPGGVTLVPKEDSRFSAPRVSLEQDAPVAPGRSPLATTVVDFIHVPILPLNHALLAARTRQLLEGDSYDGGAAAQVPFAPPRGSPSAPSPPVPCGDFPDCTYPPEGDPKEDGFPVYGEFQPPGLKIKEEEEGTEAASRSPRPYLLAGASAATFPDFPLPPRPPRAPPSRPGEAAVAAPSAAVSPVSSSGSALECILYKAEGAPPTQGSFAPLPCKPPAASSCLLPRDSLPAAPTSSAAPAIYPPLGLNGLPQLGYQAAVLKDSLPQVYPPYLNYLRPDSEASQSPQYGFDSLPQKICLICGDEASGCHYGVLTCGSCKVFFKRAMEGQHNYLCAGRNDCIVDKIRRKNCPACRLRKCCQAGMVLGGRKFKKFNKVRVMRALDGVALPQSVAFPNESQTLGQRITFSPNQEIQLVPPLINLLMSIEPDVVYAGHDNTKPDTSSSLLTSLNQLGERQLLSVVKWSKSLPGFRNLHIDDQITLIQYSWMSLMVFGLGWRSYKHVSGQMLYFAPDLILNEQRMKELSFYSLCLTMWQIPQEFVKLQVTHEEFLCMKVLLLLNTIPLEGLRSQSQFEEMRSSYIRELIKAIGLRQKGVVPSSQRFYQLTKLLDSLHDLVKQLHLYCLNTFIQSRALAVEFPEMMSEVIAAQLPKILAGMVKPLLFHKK
The experiment is described as follows: (^3 H)-P4 binding to uterus cytosols (PR). To be noted: uterus cytosol, 12 h at 0° C., 1 μM cortisol. The procedure:
as §1
Relative binding affinity (RBA) for partially purified CBG was determined by steroid competition for (^3 H)-B binding as described previously (14).

Entries after “also recorded” stand apart in the source; their conditions may differ.

The values that follow come from patent US6303591A, “21-hydroxy-6,19-oxidoprogesterone (21OH-6OP) and its use as medicament for treating excess of glucocorticoids” (Applied Research Systems ARS Holding NV, priority 1997, dated 2001).

On to `C[C@]12CC[C@H]3[C@@H](C[C@H]4OC[C@@]35CCC(=O)C=C45)[C@@H]1CC[C@@H]2C(=O)CO` [21OH-6OP, 21-hydroxy-6,19-oxidoprogesterone], for which the “increase of binding to GR by 21-hydroxyl, relative to 6OP” value in experiment [1] (21OH-6OP vs 6OP) is “over 40 times”. For the same compound, the “saturation predicted according to mass action” value in experiment [1] (FIG. 2 a, predicted) was 95%. The tracer displacement in experiment [1] (FIG. 2 a, 720 min) is 75%. For the same compound, in experiment [1] (rat thymus cytosol, 5 nM (^3 H)-B, 12 h at 0° C., read-out: RBA for GR (Kd)), the Kd – broadly, the equilibrium constant for the complex coming apart – is 125 nM. Besides, the “displacement of (^3 H)-P4 from uterus receptors / cross-reaction with PR” value in experiment [2] was “unable to cross-react with uterus-PR or kidney-MR; also recorded: does not cross-react with progesterone receptor; also recorded: as weakly as the negative control 17β-estradiol; also recorded: no ability to interact with MR nor PR; also recorded: does not cross-react with PR”.
